Data set [1] has as its system DU145 (prostate cancer). As to the kind of experiment: Effect on tumor cell lines, viable cell count by trypan blue exclusion (Latham et al.): DU145. The data set is classed as cell-based. The note with it: DU145 prostate cancer cells, viable cell count 96 hours after treatment.
Data set [2] has as its system K562 (chronic myelogenous leukaemia). Put plainly: Effect on tumor cell lines, viable cell count by trypan blue exclusion (Latham et al.): K562. The class given is cell-based. The note with it: K562 chronic myelogenous leukaemia cells, viable cell count 96 hours after treatment.

Each structure is given as a SMILES string. A value given as a limit tells only on which side of the number the result lay.

The source of these data is patent US20090191193A1, “Aryl Vinyl Sulfides, Sulfones, Sulfoxides and Sulfonamides, Derivatives Thereof and Therapeutic Uses Thereof” (TEMPLE UNIVERSITY-OF THE COMMONWEALTH SYSTEM OF HIGHER …, priority 2006, published 2009).

In turn, `N#C/C(=C\c1ccc(Cl)cc1)S(=O)(=O)Nc1ccc(Br)cc1` [Example 212] returned a melting point of 169 to 171 °C. In data set [1] (Homo sapiens, DU-145, 96 h), the IC50 is 25 to 50 µM. In data set [2] (Homo sapiens, K562, 96 h), the IC50 fell in the range of 25 to 50 µM.
In the case of `N#C/C(=C\c1ccc(F)cc1)S(=O)(=O)Cc1ccc(Cl)cc1` [Example 47], the melting point lay within 145 to 150 °C. Further, in data set [1] (Homo sapiens, DU-145, 96 h), the IC50 lay in the range of 50 to 100 µM. In data set [2] (Homo sapiens, K562, 96 h), this compound had an IC50 of 50 to 100 µM.
In turn, `CN(C)c1ccc(/C=C(\C#N)S(=O)(=O)Nc2ccccc2Oc2ccccc2)cc1` [Example 206] came in with a melting point of 158 to 160 °C. For the same compound, the IC50 in data set [1] (Homo sapiens, DU-145, 96 h) was > 100 µM. In addition, the IC50 in data set [2] (Homo sapiens, K562, 96 h) is > 100 µM.
The compound `N#C/C(=C\c1ccc(Br)cc1)S(=O)(=O)Nc1ccc(F)cc1` [Example 242] displayed a melting point of 130 to 132 °C. The IC50 in data set [1] (Homo sapiens, DU-145, 96 h) lay within 50 to 100 µM. Besides, the IC50 in data set [2] (Homo sapiens, K562, 96 h) was in the range of 50 to 100 µM.
In turn, `COc1ccc(NS(=O)(=O)/C(C#N)=C/c2c(F)c(F)c(F)c(F)c2F)cc1` [Example 192] displayed a melting point of 100 to 102 °C. Moreover, the IC50 in data set [1] (Homo sapiens, DU-145, 96 h) was 10 to 25 µM. In data set [2] (Homo sapiens, K562, 96 h), this compound displayed a 50% inhibitory concentration (IC50) of 1 to 10 µM.
On the same counts, the results for `COc1ccc(/C=C(\C#N)S(=O)(=O)Nc2ccc(Cl)cc2)cc1` [Example 195] are 94 to 96 °C, 50 to 100 µM and 50 to 100 µM.
With `COc1ccccc1/C=C(\C#N)S(=O)(=O)Nc1ccc(C)cc1C` [Example 266, (E)-2-[(2,4-dimethylphenyl)sulfamoyl]-3-(2-methoxyphenyl)acrylonitrile], the melting point lay within 136 to 139 °C. The half-maximal inhibitory concentration (IC50) in data set [1] (Homo sapiens, DU-145, 96 h) was > 100 µM. In addition, the IC50 in data set [2] (Homo sapiens, K562, 96 h) lay within 50 to 100 µM.
The compound `Cc1ccc(NS(=O)(=O)/C(C#N)=C/c2ccccc2OCc2ccccc2)c(C)c1` [Example 252] returned a melting point of 177 to 179 °C. Further, the IC50 in data set [1] (Homo sapiens, DU-145, 96 h) lay within 25 to 50 µM. Also, the IC50 in data set [2] (Homo sapiens, K562, 96 h) lay within 10 to 25 µM.
In the case of `COc1ccc(NS(=O)(=O)/C(C#N)=C/c2ccc(O)cc2)cc1` [Example 289], the melting point is 181 to 182 °C. Besides, in data set [1] (Homo sapiens, DU-145, 96 h), the IC50 was > 100 µM. Moreover, the IC50 in data set [2] (Homo sapiens, K562, 96 h) lay in the range of 50 to 100 µM.
The compound `N#C/C(=C\c1cc(Cl)cc(Cl)c1Cl)S(=O)(=O)Nc1ccc(F)cc1` [Example 243] returned a melting point of 184 to 186 °C. Also, in data set [1] (Homo sapiens, DU-145, 96 h), the 50% inhibitory concentration (IC50) is 10 to 25 µM. For the same compound, the IC50 in data set [2] (Homo sapiens, K562, 96 h) lay in the range of 10 to 25 µM.
With `Cc1ccc(C)c(/C=C(\C#N)S(=O)(=O)Cc2ccc(Br)cc2)c1` [Example 119], the melting point lay within 124 to 128 °C. For the same compound, the IC50 in data set [1] (Homo sapiens, DU-145, 96 h) was > 100 µM. Also, the IC50 in data set [2] (Homo sapiens, K562, 96 h) is > 100 µM.
For `CCOc1cc(/C=C(\C#N)S(=O)(=O)Cc2ccc(Cl)cc2)ccc1O` [Example 74], the melting point was in the range of 150 to 165 °C. In data set [1], this compound returned an IC50 of 50 to 100 µM. The same compound gave an IC50 in data set [2] of 50 to 100 µM.
`CCOc1ccc(/C=C(\C#N)S(=O)(=O)Nc2ccc(OC)cc2)cc1OC` [Example 287]: the melting point was 111 to 113 °C. Further, in data set [1] (Homo sapiens, DU-145, 96 h), the IC50 was > 100 µM. Moreover, the IC50 in data set [2] (Homo sapiens, K562, 96 h) is > 100 µM.
For `COc1ccc(/C=C(\C#N)S(=O)(=O)Cc2ccc(Cl)cc2)cc1O` [Example 44], the melting point lay in the range of 155 to 165 °C. Further, the IC50 in data set [1] (Homo sapiens, DU-145, 96 h) is > 100 µM. Also, the IC50 in data set [2] (Homo sapiens, K562, 96 h) lay within 50 to 100 µM.
On the same counts, the results for `Cc1ccc(/C=C(\C#N)S(=O)(=O)Nc2ccccc2Oc2ccccc2)s1` [Example 198] are 141 to 143 °C, 50 to 100 µM and 50 to 100 µM.
In the case of `COc1ccc(NS(=O)(=O)/C(C#N)=C/c2cc(OC)ccc2OC)cc1` [Example 202], the melting point was 156 to 158 °C. Besides, the IC50 in data set [1] (Homo sapiens, DU-145, 96 h) lay in the range of 50 to 100 µM. In data set [2] (Homo sapiens, K562, 96 h), this compound displayed an IC50 of 10 to 25 µM.
`COc1ccc(CS(=O)(=O)/C(C#N)=C/c2c(F)c(F)c(F)c(F)c2F)cc1` [Example 11] showed a melting point of 110 to 112 °C. For the same compound, the IC50 in data set [1] (Homo sapiens, DU-145, 96 h) was found to be 25 µM. This compound registered an IC50 in data set [2] (Homo sapiens, K562, 96 h) of 1 µM.
In turn, `COc1ccc(NS(=O)(=O)/C(C#N)=C/c2c(OC)cc(OC)cc2OC)cc1` [Example 191] showed a melting point of 134 to 136 °C. This compound gave an IC50 in data set [1] of 1 to 10 µM. Moreover, in data set [2], the IC50 fell in the range of 1 to 10 µM.
The compound `N#C/C(=C\c1ccc(Br)cc1)S(=O)(=O)Cc1ccc(Cl)cc1` [Example 45] gave a melting point of 168 to 180 °C. The IC50 in data set [1] (Homo sapiens, DU-145, 96 h) lay in the range of 50 to 100 µM. Also, in data set [2] (Homo sapiens, K562, 96 h), the IC50 fell in the range of 50 to 100 µM.
With `CC(=O)Oc1ccc(/C=C(\C#N)S(=O)(=O)Cc2ccc(Cl)cc2)cc1` [Example 57], the melting point lay within 192 to 202 °C. The IC50 in data set [1] (Homo sapiens, DU-145, 96 h) fell in the range of 25 to 50 µM. This compound also came in with an IC50 in data set [2] (Homo sapiens, K562, 96 h) of 25 to 50 µM.
As for `Cc1cc(/C=C(\C#N)S(=O)(=O)Cc2ccc(Cl)cc2)ccc1F` [Example 42], the melting point fell in the range of 140 to 145 °C. In data set [1] (Homo sapiens, DU-145, 96 h), this compound returned an IC50 of 50 to 100 µM. The compound further displayed an IC50 in data set [2] (Homo sapiens, K562, 96 h) of 50 to 100 µM.
The compound `COc1ccc(/C=C(\C#N)S(=O)(=O)Nc2ccc(C)cc2C)c(OC)c1OC` [Example 272] gave a melting point of 124 to 125 °C. The 50% inhibitory concentration (IC50) in data set [1] (Homo sapiens, DU-145, 96 h) is > 100 µM. The IC50 in data set [2] (Homo sapiens, K562, 96 h) was > 100 µM.
